From article PMC8117417, “Novel Trifluoromethyl Pyrimidinone Compounds With Activity Against Mycobacterium tuberculosis” (Frontiers in Chemistry, 2021)
In brackets after ≈: the same amount, converted by molar mass. Several values for one entry are separate records, joined by “and”; a condition that tells them apart may be missing. Equal entries are not always repeated.

Key:
HepG2 human liver cells = experiment: Cytotoxicity against HepG2 cells (CellTiter-Glo); assay type: cell-based; details: concentration required to inhibit growth of HepG2 cells by 50%, 72 h exposure
Experimental: Cytotoxicity was measured after 72 h of compound exposure at 37°C and 5% CO2 using CellTiter-Glo (Promega).

[1] = system: Mycobacterium smegmatis mc^2155; experiment: Spectrum: MIC99 on solid medium, agar serial dilution; assay type: cell-based; parameters: unit not given here; details: minimum concentration required to reduce CFUs by 99%, two independent runs
Escherichia coli DH5α = experiment: as above; assay type: cell-based; parameters: unit not given here; details: minimum concentration required to reduce CFUs by 99%, two independent runs
[2] = system: Pseudomonas aeruginosa BAA 47; experiment: as above; assay type: cell-based; parameters: unit not given here; details: minimum concentration required to reduce CFUs by 99%, two independent runs
K. pneumoniae = experiment: as above; assay type: cell-based; parameters: unit not given here; details: minimum concentration required to reduce CFUs by 99%, two independent runs
Experimental: Minimum inhibitory concentration to inhibit growth of 99% (MIC99) on solid medium was determined using the agar serial dilution method. Late log phase cultures were plated at ~10^5 colony-forming units (CFU)/mL onto solid medium containing 2-fold serial dilutions of compounds. The MIC99 is defined as the lowest concentration with ≤1% growth.

[3] = system: Staphylococcus aureus RN4220; experiment: as above; assay type: cell-based; parameters: unit not given here; details: minimum concentration required to reduce CFUs by 99%, values of two independent runs
[4] = system: Bacillus subtilis Marburg; experiment: as above; assay type: cell-based; parameters: unit not given here; details: minimum concentration required to reduce CFUs by 99%, values of two independent runs
[5] = system: Saccharomyces cerevisiae Y187; experiment: as above; assay type: cell-based; parameters: unit not given here; details: minimum concentration required to reduce CFUs by 99%, values of two independent runs
M. tuberculosis H37Rv = experiment: Minimum inhibitory concentration (IC90) against fluorescent M. tuberculosis in liquid culture; details: for MIC: MTB IC90 assay, Figure 1 primary hits and reference drugs in this assay; for IC90: read-out: MTB IC90
[6] = concentration required to inhibit M. tuberculosis growth by 90%, aerobic culture, 5 days, 7H9-OADC-Tw

SMILES	IC50 (HepG2 human liver cells; Homo sapiens, HepG2, 72 h)	MIC99 M. smegmatis [1]	MIC99 E. coli (Escherichia coli DH5α)	MIC99 P. aeruginosa [2]	MIC99 K. pneumoniae (K. pneumoniae)	MIC99 S. aureus [3]	MIC99 B. subtilis [4]	MIC99 S. cerevisiae [5]	melting point	MIC (M. tuberculosis H37Rv)	IC90 (M. tuberculosis H37Rv; [6])	IC50 (HepG2 human liver cells)	HepG2 IC50 (HepG2 human liver cells)	MTB IC90 (M. tuberculosis H37Rv; [6])
O=c1[nH]c(-c2ccccn2)nc(C(F)(F)F)c1Cc1ccc(F)cc1 [Compound 5, 5-(4-Fluorobenzyl)-2-(Pyridin-2-yl)-6-(Trifluoromethyl)Pyrimidin-4(3H)-One]	3.2 ± 1.5 µM	>100	>100	>100	>100	1.6, 1.6	12.5 and 6.3	3.1, 3.1	183 to 185 °C	1.7 ± 0.41 µM (≈ 0.594 µg/mL)	1.7 ± 0.41 µM			
Cc1c(C(F)(F)F)nc(-c2ccccn2)[nH]c1=O [Compound 10, 5-Methyl-2-(Pyridin-2-yl)-6-(Trifluoromethyl)Pyrimidin-4(3H)-One]	7.3 µM	25	>100	>100	>100	12.5, 12.5	12.5, 12.5	6.3 and 12.5		2.9 ± 0.47 µM (≈ 0.74 µg/mL)	2.9 µM	5.4 ± 3.1 µM		
Cc1c(C(F)(F)F)nc(-c2ncccc2O)[nH]c1=O [Compound 33, 2-(3-Hydroxypyridin-2-yl)-5-Methyl-6-(Trifluoromethyl)Pyrimidin-4(3H)-One]	3.2 ± 1.6 µM	25	>100	>100	>100	3.1, 3.1		3.1, 3.1	176 to 178 °C		2.5 ± 1.1 µM			
Cc1c(C(F)(F)F)nc(-c2ccccc2C(F)(F)F)[nH]c1=O [Compound 42, 5-Methyl-6-(Trifluoromethyl)-2-(2-(Trifluoromethyl)Phenyl)pyrimidin-4(3H)-One]	> 100 µM								168 to 170 °C		> 20 µM			
Cc1cccc(C)c1-c1nc(C(F)(F)F)c(C)c(=O)[nH]1 [Compound 43, 2-(2,6-Dimethylphenyl)-5-Methyl-6-(Trifluoromethyl)Pyrimidin-4(3H)-One]	> 100 µM								174 to 175 °C		> 20 µM		no cytotoxicity	no antibacterial activity
Cc1c(C(F)(F)F)nc(-c2ccccc2OC(F)(F)F)[nH]c1=O [Compound 44, 5-Methyl-2-(2-(Trifluoromethoxy)Phenyl)-6-(Trifluoromethyl)Pyrimidin-4(3H)-One]	> 100 µM								167 to 168 °C		> 20 µM			
Cc1c(C(F)(F)F)nc(-c2ccccc2O)[nH]c1=O [Compound 46, 2-(2-Hydroxyphenyl)-5-Methyl-6-(Trifluoromethyl)Pyrimidin-4(3H)-One]	44 ± 7.8 µM								270 to 271 °C		> 20 µM			
Cc1c(Cc2ccccc2)nc(-c2ccccn2)[nH]c1=O [Compound 47, 6-Benzyl-5-Methyl-2-(Pyridin-2-yl)Pyrimidin-4(3H)-One]	9.8 ± 5.7 µM								120 to 121 °C		5.7 ± 0.14 µM			
Cc1c(-c2ccccc2)nc(-c2ccccn2)[nH]c1=O [Compound 48, 5-Methyl-6-Phenyl-2-(Pyridin-2-yl)Pyrimidin-4(3H)-One]	9.7 ± 5.5 µM								140 to 141 °C		9.4 ± 0.67 µM			
Cc1cnc(-c2ccccn2)[nH]c1=O [Compound 50, 5-Methyl-2-(Pyridin-2-yl)Pyrimidin-4(3H)-One]	50 ± 13 µM								148 to 149 °C		> 20 µM			
O=c1[nH]c(-c2ccccn2)nc(C(F)(F)F)c1Cc1ccccc1 [Compound 52, 5-Benzyl-2-(Pyridin-2-yl)-6-(Trifluoromethyl)Pyrimidin-4(3H)-One]	7.3 ± 4.2 µM								173 to 174 °C		2.8 ± 0.78 µM			
O=c1[nH]c(-c2ccccn2)nc(C(F)(F)F)c1-c1ccc(F)cc1 [Compound 53, 5-(4-Fluorophenyl)-2-(Pyridin-2-yl)-6-(Trifluoromethyl)Pyrimidin-4(3H)-One]	11 ± 6.9 µM	>100	>100	>100	>100	3.1, 3.1	6.3, 6.3		217 to 220 °C		3.8 ± 1.6 µM			
O=c1[nH]c(-c2ccccn2)nc(C(F)(F)F)c1-c1ccccc1 [Compound 54, 5-Phenyl-2-(Pyridin-2-yl)-6-(Trifluoromethyl)Pyrimidin-4(3H)-One]	11 µM								258 to 259 °C		4.5 ± 0.14 µM	10 ± 6.4 µM		
CCc1c(C(F)(F)F)nc(-c2ccccn2)[nH]c1=O [Compound 55, 5-Ethyl-2-(Pyridin-2-yl)-6-(Trifluoromethyl)Pyrimidin-4(3H)-One]	6.1 ± 1.3 µM	100	>100	>100	>100	6.3 and 5.0	6.3 and 5.0	3.1 and 5.0	122 to 124 °C		3.7 ± 0.26 µM			
O=c1[nH]c(-c2ccccn2)nc(C(F)(F)F)c1C1CCCCC1 [Compound 58, 5-Cyclohexyl-2-(Pyridin-2-yl)-6-(Trifluoromethyl)Pyrimidin-4(3H)-One]	2.9 ± 0.28 µM								220 to 221 °C		4.1 ± 0.28 µM			
